From PMC6930555, “Design, Synthesis, and Structural Characterization of Novel Diazaphenothiazines with 1,2,3-Triazole Substituents as Promising Antiproliferative Agents” (Molecules, 2019)
Read-outs that look alike come from different tables or passages of the source.

Legend:
glioblastoma SNB-19 = assay: WST-1 cell proliferation assay, SNB-19; type: cell-based, human; settings: Homo sapiens; SNB-19, WST-1, 72 h; read-out: Anticancer Activity IC50 SNB-19
Protocol: (§1) Encouraged by our previous promising results in the field of antiproliferative activity of dipyridothiazines as well as by the good anticancer activity of the 1,2,3-triazoles, we decided to combine the biological potentials of dipyridothiazines and triazole moieties, hoping to obtain compounds with better activity. The antiproliferative activity of all 20 new 10-substituted 1,2,3-triazole derivatives of dipyridothiazines was tested in vitro against cancer cell lines: glioblastoma SNB-19, colorectal carcinoma Caco-2, lung cancer A549, and breast cancer MDA-MB231 using the WST-1 assay. Normal human fibroblasts NHDF were used as a control.
(§2) All dipyridothiazines with 1,2,3-triazole substituents (1–4)b–f were evaluated for their anticancer activity using four cultured cell lines: SNB-19 (human glioblastoma, DSMZ—German Collection of Microorganisms and Cell Cultures, Braunschweig, Germany), Caco-2 (human colon adenocarcinoma, DSMZ—German Collection of Microorganisms and Cell Cultures, Braunschweig, Germany), A549 (human lung carcinoma, ATCC, Manassas, VA, USA) and MDA-MB231 (human breast adenocarcinoma, ATCC, Manassas, VA, USA), and NHDF (human dermal fibroblast cell line, ATCC, Manassas, VA, USA. The cultured cells were kept at 37 °C and 5% CO2. The cells were seeded (1 × 10^4 cells/well/100 µL DMEM supplemented with 10% FCS and streptomycin and penicillin) using 96-well plates (Corning). The cells were counted in a hemocytometer (Burker’s chamber) using a phase contrast Olympus IX50 microscope equipped with Sony SSC-DC58 AP camera and Olympus DP10 digital camera.
(§3) Antiproliferative effect of the obtained compounds on the cancer cells was determined using the cell proliferation reagent WST-1 assay (Roche Diagnostics, Mannheim, Germany). This assay is based on the viable cell’s ability to cleave the bright red-colored tetrazolium salt (2-(4-iodophenyl)-3-(4-nitrophenyl)-5-(2,4-disulfophenyl)-2H-tetrazolium, monosodium salt) to dark red soluble formazan by cellular enzymes. An increase in the amount of formazan dye formed correlates to the number of metabolically active cells in the culture. The formazan dye produced by metabolically active cells is quantified by a scanning ELISA reader by measuring the absorbance of the dye solution at appropriate wavelengths. The examined cells were exposed to the tested compounds for 72 h at various concentrations between 0.1 μg/mL and 100 μg/mL (prepared initially at concentration of 1 mg/mL in DMSO). The cells were incubated with WST-1 (10 μL) for 1 h and the absorbance of the samples against a background control was measured at 450 nm using a microplate reader with a reference wavelength at 600 nm. The results are expressed as means of at least two independent experiments performed in triplicate.

[1] = system: colorectal carcinoma Caco-2; assay: WST-1 cell proliferation assay, Caco-2; type: cell-based; settings: Homo sapiens; Caco-2, WST-1, 72 h; read-out: Anticancer Activity IC50 Caco-2
Protocol: (§4) The antiproliferative activity of all 20 new 10-substituted 1,2,3-triazole derivatives of dipyridothiazines was tested in vitro against cancer cell lines: glioblastoma SNB-19, colorectal carcinoma Caco-2, lung cancer A549, and breast cancer MDA-MB231 using the WST-1 assay. Normal human fibroblasts NHDF were used as a control.
as §2, §3

lung cancer A549 = assay: WST-1 cell proliferation assay, A549; type: cell-based, human; settings: Homo sapiens; A549, WST-1, 72 h; read-out: Anticancer Activity IC50 A549
Protocol: as §1, §2, §3

breast cancer MDA-MB231 = assay: WST-1 cell proliferation assay, MDA-MB231; type: cell-based, human; settings: Homo sapiens, MDA-MB-231; MDA-MB231, WST-1, 72 h; read-out: Anticancer Activity IC50 MDA-MB231
Protocol: as §1, §2, §3

[2] = system: normal human fibroblasts NHDF; assay: WST-1 cytotoxicity assay, normal fibroblasts NHDF; type: cell-based; settings: for IC50: normal human fibroblasts NHDF, WST-1, 72 h
Protocol: as §1, §2, §3

[3] = system: SNB-19, Caco-2, A549 and MDA-MB231 cancer cell lines; assay: WST-1 assay, summary over the cancer cell line panel; type: cell-based, human; settings: for IC50: Homo sapiens
Protocol: as §4, §2, §3

[4] = system: H3, TP53, CDKN1A, BCL-2 and BAX genes in glioblastoma SNB-19; assay: RT-qPCR gene expression, SNB-19; type: cell-based, human; settings: SNB-19, 0.5 µg/mL, 24 h
Protocol: (§5) In this method the gene transcriptional activities of proliferation marker (H3), cell cycle regulator (TP53 and CDKNIA), and intracellular apoptosis pathway (BCL-2 and BAX) were analyzed. It has been known that the growth, metabolism, and eventual death of the cells in the body are controlled by hundreds of genes working together. The gene encoding histone H3 plays a crucial role in regulation of the expression of the genetic information included in the DNA.
(§6) Genes trancriptional activity (H3, TP53, CDKN1A, BCL-2, and BAX) was evaluated by real time RT-qPCR with OPTICON TM DNA Engine (MJ Research, Watertown, MA, USA) and QuantTect® SYBR® Green RT-PCR Kit (Quiagen, Valencia, CA). Cells were exposed to compound 4 at a 0.5 µg/mL concentration for 24 h. The RNA extraction was made by using Quick-RNA™ Kit MiniPrep (ZYMO […]). Total RNA integrity was analysed in 1.2% agarose electrophoresis with added ethidium bromide. The quantity and purity of extracted total RNA were determined by using spectrophotometric analysis with HP845 (Hewlett Packard, Waldbronn, Germany) spectrophotometer. The statistical analysis was performed using the Statistica 8.0 software. All values were expressed as means ± SE.

[5] = system: H3, TP53, CDKN1A, BCL-2 and BAX genes in colorectal carcinoma Caco-2; assay: RT-qPCR gene expression, Caco-2; type: cell-based, human
Protocol: as §5, §6

[6] = system: H3, TP53, CDKN1A, BCL-2 and BAX genes in lung cancer A549; assay: RT-qPCR gene expression, A549; type: cell-based, human; settings: A549, 0.5 µg/mL, 24 h
Protocol: as §5, §6

[7] = system: H3, TP53, CDKN1A, BCL-2 and BAX genes in breast cancer MDA-MB231; assay: RT-qPCR gene expression, MDA-MB231; type: cell-based, human
Protocol: as §5, §6

[8] = system: H3, TP53, CDKN1A, BCL-2 and BAX genes in SNB-19, Caco-2, A549 and MDA-MB231; assay: RT-qPCR gene expression, summary over the cancer cell lines; type: cell-based, human
Protocol: as §5, §6

[9] = span over SNB-19, Caco-2, A549, MDA-MB231, read-out: IC50 across all investigated cancer cell lines

`c1ccc(Cn2cc(CN3c4ccncc4Sc4ccncc43)nn2)cc1` [3b, 10-[(1-Benzyl-1H-1,2,3-triazol-4-yl)-methyl]-2,7-diazaphenothiazine] showed an IC50 (glioblastoma SNB-19) of 2.04 µM, an IC50 [1] of 0.26 µM and an IC50 (lung cancer A549) of 0.26 µM. For the same compound, the IC50 (breast cancer MDA-MB231) was 0.77 µM, the IC50 [2] was 22.7 µM and the IC50 [3, 9] was 0.26 to 2.07 µM.

`Fc1ccc(Cn2cc(CN3c4ccncc4Sc4ncccc43)nn2)cc1` [4c, 10-[(1-(4-Fluorobenzyl)-1H-1,2,3-triazol-4-yl)methyl]-3,6-diazaphenothiazine] was tested, and the IC50 (glioblastoma SNB-19) was 6.25 µM, the IC50 [1] was 0.25 µM and the IC50 (lung cancer A549) was 0.25 µM. The IC50 (breast cancer MDA-MB231) was 1.97 µM, the IC50 [2] was 2.85 µM and the IC50 [3, 9] was 0.25 to 6.25 µM.

Work on `Fc1ccc(Cn2cc(CN3c4cccnc4Sc4cccnc43)nn2)cc1` [1c, 10-[(1-(4-Fluorobenzyl)-1H-1,2,3-triazol-4-yl)methyl]-1,6-diazaphenothiazine] yielded an IC50 (glioblastoma SNB-19) of 5.72 µM, an IC50 [1] of 8.1 µM and an IC50 (lung cancer A549) of 29.1 µM. The IC50 (breast cancer MDA-MB231) was 7.82 µM, the IC50 [2] was > 100 µM and the IC50 ([3]; span over SNB-19 and MDA-MB231, read-out: IC50 in relation to SNB-19 and MDA-MB231 cell lines) was 5.72 to 7.82 µM.

`c1ccc(SCn2cc(CN3c4ccncc4Sc4ccncc43)nn2)cc1` [3f, 10-[(1-Phenylthiomethyl-1H-1,2,3-triazolo-4-ylo)methyl]-2,7-diazaphenothiazine] showed an IC50 (glioblastoma SNB-19) of 32.6 µM, an IC50 [1] of 14.5 µM and an IC50 (lung cancer A549) of 0.65 µM. For the same compound, the IC50 (breast cancer MDA-MB231) was 0.64 µM, the IC50 [2] was 52.9 µM and the “selectivity among cancer cell lines (in words)” value ([3]; four cancer cell lines) was “acted selectively towards A549 and MDA-MB231 cell lines”.

`c1ccc(SCn2cc(CN3c4cccnc4Sc4cccnc43)nn2)cc1` [1f, 10-[(1-Phenylthiomethyl-1H-1,2,3-triazolo-4-ylo)methyl]-1,6-diazaphenothiazine] was tested, and the IC50 (glioblastoma SNB-19) was > 100 µM, the IC50 [1] was > 100 µM and the IC50 (lung cancer A549) was > 100 µM. The IC50 (breast cancer MDA-MB231) was 68.7 µM and the IC50 [2] was > 100 µM.

Compound `Clc1ccc(Cn2cc(CN3c4cccnc4Sc4cccnc43)nn2)cc1` [1d, 10-[(1-(4-Chlorobenzyl)-1H-1,2,3-triazol-4-yl)methyl]-1,6-diazaphenothiazine] has an IC50 (glioblastoma SNB-19) of 4.66 µM, an IC50 [1] of 0.25 µM and an IC50 (lung cancer A549) of 0.25 µM. For the same compound, the IC50 (breast cancer MDA-MB231) was 0.51 µM, the “cytotoxicity against normal human fibroblasts (in words)” value ([2]; NHDF) was “relatively low cytotoxicity” and the IC50 [2] was > 100 µM. For the same compound, the IC50 [3, 9] was 0.25 to 4.66 µM, the “BAX number of mRNA copies/μg total RNA” value [4] was 220+/−18 mRNA Copies/μg Total RNA and the “BCL-2 number of mRNA copies/μg total RNA” value [4] was 17497+/−4607 mRNA Copies/μg Total RNA. The “CDKN1A number of mRNA copies/μg total RNA” value (shortened to “CDKN1A number”) [4] was 308+/−51 mRNA Copies/μg Total RNA, the “H3 number of mRNA copies/μg total RNA” value [4] was 52+/−11 mRNA Copies/μg Total RNA and the “TP53 number of mRNA copies/μg total RNA” value [4] was 128+/−24 mRNA Copies/μg Total RNA. The “effect on expression of BCL-2 (in words)” value ([5]; Caco-2) was “slight increase”, the “BAX number of mRNA copies/μg total RNA” value ([5]; Caco-2, 0.5 µg/mL, 24 h) was 969+/−264 mRNA Copies/μg Total RNA and the “BCL-2/BAX gene expression ratio” value ([5]; Caco-2, 0.5 µg/mL, 24 h) was 743. The “BCL-2 number of mRNA copies/μg total RNA” value ([5]; Caco-2, 0.5 µg/mL, 24 h) was 723708+/−217134 mRNA Copies/μg Total RNA, the “CDKN1A number” value ([5]; Caco-2, 0.5 µg/mL, 24 h) was 260+/−21 mRNA Copies/μg Total RNA and the “H3 number of mRNA copies/μg total RNA” value ([5]; Caco-2, 0.5 µg/mL, 24 h) was 45+/−3 mRNA Copies/μg Total RNA. The “TP53 number of mRNA copies/μg total RNA” value ([5]; Caco-2, 0.5 µg/mL, 24 h) was 193+/−16 mRNA Copies/μg Total RNA, the “BAX number of mRNA copies/μg total RNA” value [6] was 835+/−231 mRNA Copies/μg Total RNA and the “BCL-2/BAX gene expression ratio” value [6] was 18. The “BCL-2 number of mRNA copies/μg total RNA” value [6] was 15631+/−2296 mRNA Copies/μg Total RNA, the “CDKN1A number” value [6] was 969+/−137 mRNA Copies/μg Total RNA and the “H3 number of mRNA copies/μg total RNA” value [6] was 18+/−5 mRNA Copies/μg Total RNA. For the same compound, the “TP53 number of mRNA copies/μg total RNA” value [6] was 54+/−19 mRNA Copies/μg Total RNA, the “apoptosis pathway from gene expression ratio BCL-2/BAX (in words)” value ([7]; MDA-MB231) was “activation of the mitochondrial apoptosis” and the “BAX number of mRNA copies/μg total RNA” value ([7]; MDA-MB231, 0.5 µg/mL, 24 h) was 221+/−16 mRNA Copies/μg Total RNA. For the same compound, the “BCL-2 number of mRNA copies/μg total RNA” value ([7]; MDA-MB231, 0.5 µg/mL, 24 h) was 16495+/−4607 mRNA Copies/μg Total RNA, the “CDKN1A number” value ([7]; MDA-MB231, 0.5 µg/mL, 24 h) was 577+/−308 mRNA Copies/μg Total RNA and the “H3 number of mRNA copies/μg total RNA” value ([7]; MDA-MB231, 0.5 µg/mL, 24 h) was 8+/−6 mRNA Copies/μg Total RNA. For the same compound, the “TP53 number of mRNA copies/μg total RNA” value ([7]; MDA-MB231, 0.5 µg/mL, 24 h) was 46+/−20 mRNA Copies/μg Total RNA, the “effect on expression of BCL-2 (in words)” value ([8]; SNB-19, A549 and MDA-MB231) was “remarkably reduced” and the “effect on CDKN1A copies (in words)” value ([8]; all cancer cells) was “strong decline”. The “effect on mRNA copy number of the histone H3 gene (in words)” value ([8]; all cancer lines) was “strongly changed”, the “effect on expression of BAX (in words)” value ([8]; all investigated cancer cell lines) was “decrease” and the “effect on amount of mRNA copies of TP53 (in words)” value ([8]; all investigated cancer lines) was “significantly interfered”.

In the case of `N#Cc1ccc(Cn2cc(CN3c4cnccc4Sc4cccnc43)nn2)cc1` [2e, 10-[(1-(4-Cyanobenzyl)-1H-1,2,3-triazol-4-yl)methyl]-1,8-diazaphenothiazine], the IC50 (glioblastoma SNB-19) is reported as 10.6 µM, the IC50 [1] is reported as 34.4 µM and the IC50 (lung cancer A549) is reported as 63.8 µM. For the same compound, the IC50 (breast cancer MDA-MB231) was 12 µM and the IC50 [2] was > 100 µM.

With `c1ccc(Cn2cc(CN3c4cnccc4Sc4cccnc43)nn2)cc1` [2b, 10-[(1-Benzyl-1H-1,2,3-triazol-4-yl)-methyl]-1,8-diazaphenothiazine] the IC50 (glioblastoma SNB-19) was 41.9 µM, the IC50 [1] was > 100 µM and the IC50 (lung cancer A549) was 77.4 µM. The IC50 (breast cancer MDA-MB231) was 56.3 µM and the IC50 [2] was > 100 µM.
